Test results: patent publication US8846698B2, “Pyrrolo[2,3-d]pyrimidine tropomysin-related kinase inhibitors” (Pfizer Limited, priority 2011, dated 2014)
pIC50: −log10 of the molar value.

Molecular target: TRKA (Homo sapiens (Human), UniProt P04629)
Experiment: Isolated TRK enzyme assay (HTRF KinEASE-TK), TRKA
Type: biochemical
Conditions: read-out: Trka enzyme (IC50)

Sequence of TRKA (P04629 441-796): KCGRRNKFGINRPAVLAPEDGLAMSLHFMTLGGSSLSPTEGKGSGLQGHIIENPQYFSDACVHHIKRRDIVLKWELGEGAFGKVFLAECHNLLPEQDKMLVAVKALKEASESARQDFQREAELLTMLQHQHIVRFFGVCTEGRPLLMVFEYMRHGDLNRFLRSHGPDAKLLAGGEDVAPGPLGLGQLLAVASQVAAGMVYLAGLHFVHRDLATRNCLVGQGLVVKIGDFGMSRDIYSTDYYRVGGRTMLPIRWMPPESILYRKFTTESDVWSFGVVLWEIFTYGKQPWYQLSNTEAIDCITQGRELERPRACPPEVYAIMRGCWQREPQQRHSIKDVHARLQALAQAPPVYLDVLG

Row | Structure (SMILES) | pIC50
1 | Cn1cc(C(=O)c2cncc(NC(=O)Nc3ccc(C(F)(F)F)cc3)c2)c2cncnc21 [Example 294, 1-{5-[(7-methyl-7H-pyrrolo[2,3-d]pyrimidin-5-yl)carbonyl]pyridin-3-yl}-3-[4-(trifluoromethyl)phenyl]urea] | 7.21
2 | Cc1cc(C(C)C)nn1CC(=O)Nc1cncc(C(=O)c2cn(C(C)C)c3ncncc23)c1 [Example 104, 2-(3-isopropyl-5-methyl-1H-pyrazol-1-yl)-N-{5-[(7-isopropyl-7H-pyrrolo[2,3-d]pyrimidin-5-yl)carbonyl]pyridin-3-yl}acetamide] | 7.70
3 | CC(C)(CO)n1cc(C(=O)c2cncc(NC(=O)Cc3ccc4ocnc4c3)c2)c2cnc(N)nc21 [Example 257, N-(5-{[2-amino-7-(2-hydroxy-1,1-dimethylethyl)-7H-pyrrolo[2,3-d]pyrimidin-5-yl]carbonyl}pyridin-3-yl)-2-(1,3-benzoxazol-5-yl)acetamide] | 7.91
4 | Cc1noc2ncc(C(=O)Nc3cncc(C(=O)c4cn(C(C)C)c5ncncc45)c3)cc12 [Example 508, 3-Methyl-isoxazolo[5,4-b]pyridine-5-carboxylic acid [5-(7-isopropyl-7H-pyrrolo[2,3-d]pyrimidine-5-carbonyl)-pyridin-3-yl]-amide] | 5.79
5 | CC(C)n1cc(C(=O)c2cncc(NC(=O)Cc3ccc(Cl)cc3)c2)c2cnc(N)nc21 [Example 250, N-{5-[(2-amino-7-isopropyl-7H-pyrrolo[2,3-d]pyrimidin-5-yl)carbonyl]pyridin-3-yl}-2-(4-chlorophenyl)acetamide] | 8.46
6 | CC(C)n1cc(C(=O)c2cncc(NC(=O)Cc3ccc(Cl)cn3)c2)c2cncnc21 [Example 98, 2-(5-chloropyridin-2-yl)-N-{5-[(7-isopropyl-7H-pyrrolo[2,3-d]pyrimidin-5-yl)carbonyl]pyridin-3-yl}acetamide] | 8.29
7 | CC(C)n1cc(C(=O)c2cncc(NC(=O)Cn3cc(C4CC4)nn3)c2)c2cncnc21 [Example 88, 2-(4-cyclopropyl-1H-1,2,3-triazol-1-yl)-N-{5-[(7-isopropyl-7H-pyrrolo[2,3-d]pyrimidin-5-yl)carbonyl]pyridin-3-yl}acetamide] | 7.25
8 | Cc1[nH]c2ccc(Cl)cc2c1CC(=O)Nc1cncc(C(=O)c2cn(C(C)C)c3ncncc23)c1 [Example 110, 2-(5-chloro-2-methyl-1H-indol-3-yl)-N-{5-[(7-isopropyl-7H-pyrrolo[2,3-d]pyrimidin-5-yl)carbonyl]pyridin-3-yl}acetamide] | 7.44
9 | CC(C)n1cc(C(=O)c2cncc(NC(=O)c3cnc4[nH]ccc4c3)c2)c2cncnc21 [Example 436, 1H-Pyrrolo[2,3-b]pyridine-5-carboxylic acid [5-(7-isopropyl-7H-pyrrolo[2,3-d]pyrimidine-5-carbonyl)-pyridin-3-yl]amide] | 6.69
10 | CC(C)n1cc(C(=O)c2cncc(NC(=O)c3ccc4[nH]ccc4n3)c2)c2cncnc21 [Example 447, 1H-Pyrrolo[3,2-b]pyridine-5-carboxylic acid [5-(7-isopropyl-7H-pyrrolo[2,3-d]pyrimidine-5-carbonyl)-pyridin-3-yl]amide] | 6.04
11 | CC(C)n1cc(C(=O)c2cncc(NC(=O)Cc3cn4cc(Cl)sc4n3)c2)c2cncnc21 [Example 371, 2-(2-Chloro-imidazo[2,1-b]thiazol-6-yl)-N-[5-(7-isopropyl-7H-pyrrolo[2,3-d]pyrimidine-5-carbonyl)-pyridin-3-yl]-acetamide] | 7.01
12 | O=C(Cc1cccc(Cl)c1)Nc1cncc(C(=O)c2cn(C3COC3)c3ncncc23)c1 [Example 220, 2-(3-chlorophenyl)-N-{5-[(7-oxetan-3-yl-7H-pyrrolo[2,3-d]pyrimidin-5-yl)carbonyl]pyridin-3-yl}acetamide] | 6.34
13 | CC(CO)(CO)n1cc(C(=O)c2cncc(NC(=O)Cc3ccc(C#N)c(C(F)(F)F)c3)c2)c2cncnc21 [Example 261] | 6.89
14 | CC(C)(CO)n1cc(C(=O)c2cncc(NC(=O)Cc3cccc(C(F)(F)F)c3)c2)c2cncnc21 [Example 226, N-(5-{[7-(2-hydroxy-1,1-dimethylethyl)-7H-pyrrolo[2,3-d]pyrimidin-5-yl]carbonyl}pyridin-3-yl)-2-[3-(trifluoromethyl)phenyl]acetamide] | 8.44
15 | CC(C)n1cc(C(=O)c2cncc(NC(=O)Cc3ccc(C#N)cn3)c2)c2cnc(N)nc21 [Example 255, N-{5-[(2-amino-7-isopropyl-7H-pyrrolo[2,3-d]pyrimidin-5-yl)carbonyl]pyridin-3-yl}-2-(5-cyanopyridin-2-yl)acetamide] | 7.37
16 | COc1ccnc(C(=O)Nc2cncc(C(=O)c3cn(C(C)C)c4ncncc34)c2)c1 [Example 409, 4-Methoxy-pyridine-2-carboxylic acid [5-(7-isopropyl-7H-pyrrolo[2,3-d]pyrimidine-5-carbonyl)-pyridin-3-yl]-amide] | 7.15
17 | Cn1cc(CC(=O)Nc2cncc(C(=O)c3cn(C(C)(C)C)c4ncncc34)c2)c(C2CC2)n1 [Example 203, N-{5-[(7-tert-butyl-7H-pyrrolo[2,3-d]pyrimidin-5-yl)carbonyl]pyridin-3-yl}-2-(3-cyclopropyl-1-methyl-1H-pyrazol-4-yl)acetamide] | 6.50

Row | Structure (SMILES) | pIC50
18 | CC1(n2cc(C(=O)c3cncc(NC(=O)Cn4cc(C(F)(F)F)nn4)c3)c3cncnc32)COC1 [Example 312, N-(5-{[7-(3-methyloxetan-3-yl)-7H-pyrrolo[2,3-d]pyrimidin-5-yl]carbonyl}pyridin-3-yl)-2-[4-(trifluoromethyl)-1H-1,2,3-triazol-1-yl]acetamide] | 6.78
19 | CC(C)n1cc(C(=O)c2cncc(NC(=O)Cn3ccc(C(F)(F)F)n3)c2)c2cnc(N)nc21 [Example 252, N-{5-[(2-amino-7-isopropyl-7H-pyrrolo[2,3-d]pyrimidin-5-yl)carbonyl]pyridin-3-yl}-2-[3-(trifluoromethyl)-1H-pyrazol-1-yl]acetamide] | 8.29
20 | CC(C)n1cc(C(=O)c2cncc(NC(=O)Cn3cc(C4CC4)nn3)c2)c2cnc(N)nc21 [Example 249, N-{5-[(2-amino-7-isopropyl-7H-pyrrolo[2,3-d]pyrimidin-5-yl)carbonyl]pyridin-3-yl}-2-(4-cyclopropyl-1H-1,2,3-triazol-1-yl)acetamide] | 7.45
21 | CC(C)n1cc(C(=O)c2cncc(NC(=O)c3nnc4n3CCCC4)c2)c2cncnc21 [Example 503, 5,6,7,8-Tetrahydro-1,2,4-triazolo[4,3-a]pyridine-3-carboxylic acid [5-(7-isopropyl-7H-pyrrolo[2,3-d]pyrimidine-5-carbonyl)-pyridin-3-yl]-amide] | 6.02
22 | CC(C)n1cc(C(=O)c2cncc(NC(=O)c3cc4sccc4cn3)c2)c2cncnc21 [Example 404, Thieno[3,2-c]pyridine-6-carboxylic acid [5-(7-isopropyl-7H-pyrrolo[2,3-d]pyrimidine-5-carbonyl)-pyridin-3-yl]-amide] | 6.93
23 | C[C@H](CO)n1cc(C(=O)c2cncc(NC(=O)Cc3ccc(C#N)cc3)c2)c2cncnc21 [Example 208, 2-(4-cyanophenyl)-N-[5-({7-[(1R)-2-hydroxy-1-methylethyl]-7H-pyrrolo[2,3-d]pyrimidin-5-yl}carbonyl)pyridin-3-yl]acetamide] | 6.89
24 | Cc1ccc(CC(=O)Nc2cncc(C(=O)c3cn(C)c4ncncc34)c2)cc1 [Example 186, 2-(4-methylphenyl)-N-{5-[(7-methyl-7H-pyrrolo[2,3-d]pyrimidin-5-yl)carbonyl]pyridin-3-yl}acetamide] | 6.14
25 | Cc1cccc(-c2nnnn2CC(=O)Nc2cncc(C(=O)c3cn(C(C)C)c4ncncc34)c2)c1 [Example 364, N-[5-(7-Isopropyl-7H-pyrrolo[2,3-d]pyrimidine-5-carbonyl)-pyridin-3-yl]-2-(5-m-tolyl-tetrazol-1-yl)-acetamide] | 5.30
26 | Cc1cncnc1C(=O)Nc1cncc(C(=O)c2cn(C(C)C)c3ncncc23)c1 [Example 413, 5-Methyl-pyrimidine-4-carboxylic acid [5-(7-isopropyl-7H-pyrrolo[2,3-d]pyrimidine-5-carbonyl)-pyridin-3-yl]-amide] | 5.01
27 | Cc1cc(C(=O)Nc2cncc(C(=O)c3cn(C(C)C)c4ncncc34)c2)nn1C [Example 400, 1,5-Dimethyl-1H-pyrazole-3-carboxylic acid [5-(7-isopropyl-7H-pyrrolo[2,3-d]pyrimidine-5-carbonyl)-pyridin-3-yl]-amide] | 6.23
28 | N#Cc1cccc(CC(=O)Nc2cncc(C(=O)c3cn(C4COC4)c4ncncc34)c2)c1 [Example 221, 2-(3-cyanophenyl)-N-{5-[(7-oxetan-3-yl-7H-pyrrolo[2,3-d]pyrimidin-5-yl)carbonyl]pyridin-3-yl}acetamide] | 5.51
29 | CC(C)n1cc(C(=O)c2cncc(NC(=O)Cc3ccc(C#N)c(C(F)(F)F)c3)c2)c2cncnc21 [Example 72, 2-[4-cyano-3-(trifluoromethyl)phenyl]-N-{5-[(7-isopropyl-7H-pyrrolo[2,3-d]pyrimidin-5-yl)carbonyl]pyridin-3-yl}acetamide] | 7.20
30 | CC(C)n1cc(C(=O)c2cncc(NC(=O)Cn3cc4ccccc4n3)c2)c2cncnc21 [Example 93, 2-(2H-indazol-2-yl)-N-{5-[(7-isopropyl-7H-pyrrolo[2,3-d]pyrimidin-5-yl)carbonyl]pyridin-3-yl}acetamide] | 7.91
31 | CC(C)n1cc(C(=O)c2cncc(NC(=O)Cc3cn4ccccc4n3)c2)c2cncnc21 [Example 128, 2-imidazo[1,2-a]pyridin-2-yl-N-{5-[(7-isopropyl-7H-pyrrolo[2,3-d]pyrimidin-5-yl)carbonyl]pyridin-3-yl}acetamide] | 6.69
32 | COCc1cc(C(=O)Nc2cncc(C(=O)c3cn(C(C)C)c4ncncc34)c2)nn1C [Example 481, 5-Methoxymethyl-1-methyl-1H-pyrazole-3-carboxylic acid [5-(7-isopropyl-7H-pyrrolo[2,3-d]pyrimidine-5-carbonyl)-pyridin-3-yl]-amide] | 6.50
33 | CC(C)n1cc(C(=O)c2cncc(NC(=O)Cn3nc4ccccc4n3)c2)c2cncnc21 [Example 108, 2-(2H-benzotriazol-2-yl)-N-{5-[(7-isopropyl-7H-pyrrolo[2,3-d]pyrimidin-5-yl)carbonyl]pyridin-3-yl}acetamide] | 8.12
